# Experimental data from patent US20060069132A1, “Azolecarboxamide herbicides” (priority 2004, published 2006).
# Columns and labels:
# ducksalad = assay: Test B flooded paddy test; format: in vivo, Heteranthera limosa; conditions: 1000 g ai/ha, scale 0 to 100 (0 no effect, 100 complete control)
# Method in brief: (§1)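 Treated at 2-leaf (paddy) or 1–4-leaf, 2–18 cm (postemergence); greenhouse 13–15 d; visual score vs control, 0 none to 100 complete control; dash = not tested.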
# cocklebur = assay: Test B pre-/postemergence herbicide test; format: in vivo, Xanthium strumarium
# Method in brief: (§2)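 Herbicidal effect was judged by eye on a 0–100 scale after plants stood 13 to 15 days in the greenhouse following pre- or postemergence treatment with surfactant-containing formulations.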
# wheat = assay: Test B postemergence herbicide test; format: in vivo, Triticum aestivum; design: key to Wheat plant response rating: 0 = no effect, 100 = complete control
# Method in brief: (§3)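 After treating 2-leaf paddy plants or 2–18 cm postemergence plants (1 to 4 leaves) with formulated chemical, researchers kept them in a greenhouse for 13–15 days. Effects were judged visually versus controls: 0 indicates none, 100 total control.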
# wild oat = assay: Test B postemergence herbicide test; format: in vivo, Avena fatua
# Method in brief: as §3
# barnyardgrass [1] = assay: Test B flooded paddy test; format: in vivo, Echinochloa crus-galli; conditions: 1000 g ai/ha, scale 0 to 100 (0 no effect, 100 complete control)
# Method in brief: as §1
# large crabgrass = assay: Test B pre-/postemergence herbicide test; format: in vivo, Digitaria sanguinalis
# Method in brief: (§4)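 Seeds were planted and treated preemergence with compounds formulated in a non-phytotoxic solvent mixture containing surfactant, while plants at the 1- to 4-leaf stage (2 to 18 cm) received postemergence sprays. Flooded paddy plants were grown to the 2-leaf stage. After 13 to 15 days in a greenhouse, injury was visually rated 0–100 against untreated controls.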
# rice = assay: Test B flooded paddy test; format: in vivo, Oryza sativa; conditions: 1000 g ai/ha, scale 0 to 100 (0 no effect, 100 complete control)
# Method in brief: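 Visual ratings, 0 (no effect) to 100 (complete control), made versus controls after 13–15 d greenhouse. Paddy plants treated at 2-leaf stage; postemergence plants at 1- to 4-leaf stage, 2–18 cm tall.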
# morningglory = assay: Test B pre-/postemergence herbicide test; format: in vivo, Ipomoea coccinea
# Method in brief: as §2
# giant foxtail = assay: Test B pre-/postemergence herbicide test; format: in vivo, Setaria faberi
# Method in brief: as §4
# [2] = system: small flower umbrella sedge; assay: Test B flooded paddy test; format: in vivo, Cyperus difformis; conditions: 1000 g ai/ha, scale 0 to 100 (0 no effect, 100 complete control)
# Method in brief: as §1
# barnyardgrass [3] = assay: Test B pre-/postemergence herbicide test; format: in vivo, Echinochloa crus-galli; conditions: for Barnyardgrass plant response rating: scale 0 (no effect) to 100 (complete control)
# Method in brief: as §2
# lambsquarters = assay: Test B pre-/postemergence herbicide test; format: in vivo, Chenopodium album
# Method in brief: as §4
# Surinam grass = assay: Test B pre-/postemergence herbicide test; format: in vivo, Urochloa decumbens
# Method in brief: as §4
# pigweed = assay: Test B pre-/postemergence herbicide test; format: in vivo, Amaranthus retroflexus
# Method in brief: as §4
# velvetleaf = assay: Test B pre-/postemergence herbicide test; format: in vivo, Abutilon theophrasti
# Method in brief: as §4
# [4] = 125 g ai/ha, 0 is no effect, 100 is complete control, preemergence
# [5] = Postemergence, 500 g ai/ha, scale 0 (no effect) to 100 (complete control)
# [6] = postemergence, 125 g ai/ha, scale 0 to 100
# [7] = 500 g ai/ha, visual rating 0-100, 0 no effect, 100 complete control, preemergence
# [8] = postemergence, 125 g ai/ha, visual rating, scale 0 (no effect) to 100 (complete control)
# [9] = postemergence, 500 g ai/ha, visual rating, scale 0 (no effect) to 100 (complete control)
# [10] = preemergence, 125 g ai/ha, 0 to 100 scale, 0 is no effect, 100 is complete control
# [11] = postemergence, 125 g ai/ha, visual rating
# [12] = postemergence, 500 g ai/ha, visual rating
smiles,measurement,setting,value
C#CCOc1cccc(NC(=O)c2cc(C(C)(C)C)nn2CC)c1 [Compound 411],Ducksalad plant response rating,ducksalad,80
same,"Plant response rating (0 to 100 scale), Cocklebur",cocklebur; [4],0
same,Cocklebur plant response rating,cocklebur; [5],60
same,Cocklebur plant response rating,cocklebur; [6],0
same,Wheat plant response rating,"wheat; 500 g ai/ha, scale 0 to 100, 0 no effect, 100 complete control, preemergence",60
same,Wheat plant response rating,wheat; [5],30
same,Wheat plant response rating,wheat; [6],20
same,"Oat, Wild plant response rating",wild oat; [5],50
same,"Oat, Wild plant response rating",wild oat; [6],40
same,Barnyardgrass plant response rating,barnyardgrass [1],50
same,"Plant response rating (0 to 100 scale), Crabgrass, Large",large crabgrass; [4],80
same,"Crabgrass, Large plant response rating",large crabgrass; [5],30
same,"Crabgrass, Large plant response rating",large crabgrass; [6],0
same,Rice plant response rating,rice,50
same,"Plant response rating (0 to 100 scale), Morningglory",morningglory; [4],0
same,Morningglory plant response rating,morningglory; [5],0
same,Morningglory plant response rating,morningglory; [6],0
same,"Plant response rating (0 to 100 scale), Foxtail, Giant",giant foxtail; [4],10
same,"Foxtail, Giant plant response rating",giant foxtail; [5],30
same,"Foxtail, Giant plant response rating",giant foxtail; [6],20
same,"Sedge, Umbrella plant response rating",[2],80
same,"Plant response rating (0 to 100 scale), Barnyardgrass",barnyardgrass [3]; [4],60
same,Barnyardgrass plant response rating,"barnyardgrass [3]; Postemergence, 125 g ai/ha",0
same,Barnyardgrass plant response rating,"barnyardgrass [3]; Postemergence, 500 g ai/ha",30
same,"Plant response rating (0 to 100 scale), Lambsquarters",lambsquarters; [4],50
same,Lambsquarters plant response rating,lambsquarters; [5],90
same,Lambsquarters plant response rating,lambsquarters; [6],20
same,"Plant response rating (0 to 100 scale), Surinam Grass",Surinam grass; [4],10
same,Surinam Grass plant response rating,Surinam grass; [5],10
same,Surinam Grass plant response rating,Surinam grass; [6],0
same,"Plant response rating (0 to 100 scale), Pigweed",pigweed; [4],30
same,Pigweed plant response rating,pigweed; [5],90
same,Pigweed plant response rating,pigweed; [6],80
same,"Plant response rating (0 to 100 scale), Velvetleaf",velvetleaf; [4],0
same,Velvetleaf plant response rating,velvetleaf; [5],10
same,Velvetleaf plant response rating,velvetleaf; [6],0
CCN(CC)C(=O)c1cccc(NC(=O)c2cc(C(C)(C)C)nn2CC)n1 [Compound 145],Ducksalad plant response rating,"ducksalad; visual rating, 13 to 15 days",70
same,"Plant response rating, Cocklebur",cocklebur; [7],20
same,Cocklebur plant response rating,cocklebur; [8],0
same,Cocklebur plant response rating,cocklebur; [9],30
same,"Plant response rating, Cocklebur",cocklebur; [10],0
same,Wheat plant response rating,wheat; [9],20
same,"Oat, Wild plant response rating",wild oat; [8],10
same,"Oat, Wild plant response rating",wild oat; [9],30
same,Barnyardgrass plant response rating,"barnyardgrass [1]; visual rating, 13 to 15 days",70
same,"Plant response rating, Crabgrass, Large",large crabgrass; [7],100
same,"Crabgrass, Large plant response rating",large crabgrass; [8],10
same,"Crabgrass, Large plant response rating",large crabgrass; [9],10
same,Rice plant response rating,"rice; visual rating, 13 to 15 days",40
same,"Plant response rating, Morningglory",morningglory; [7],40
same,Morningglory plant response rating,morningglory; [8],0
same,Morningglory plant response rating,morningglory; [9],20
same,"Plant response rating, Morningglory",morningglory; [10],30
same,"Plant response rating, Foxtail, Giant",giant foxtail; [7],100
same,"Foxtail, Giant plant response rating",giant foxtail; [8],30
same,"Foxtail, Giant plant response rating",giant foxtail; [9],40
same,"Plant response rating, Foxtail, Giant",giant foxtail; [10],80
same,"Sedge, Umbrella plant response rating","[2]; visual rating, 13 to 15 days",90
same,"Plant response rating, Barnyardgrass",barnyardgrass [3]; [7],100
same,Barnyardgrass plant response rating,barnyardgrass [3]; [11],0
same,Barnyardgrass plant response rating,barnyardgrass [3]; [12],40
same,"Plant response rating, Barnyardgrass",barnyardgrass [3]; [10],70
same,"Plant response rating, Lambsquarters",lambsquarters; [7],100
same,Lambsquarters plant response rating,lambsquarters; [8],60
same,Lambsquarters plant response rating,lambsquarters; [9],70
same,"Plant response rating, Lambsquarters",lambsquarters; [10],80
same,"Plant response rating, Surinam Grass",Surinam grass; [7],80
same,Surinam Grass plant response rating,Surinam grass; [8],20
same,Surinam Grass plant response rating,Surinam grass; [9],20
same,"Plant response rating, Surinam Grass",Surinam grass; [10],30
same,"Plant response rating, Pigweed",pigweed; [7],100
same,Pigweed plant response rating,pigweed; [8],90
same,Pigweed plant response rating,pigweed; [9],100
same,"Plant response rating, Pigweed",pigweed; [10],100
same,"Plant response rating, Velvetleaf",velvetleaf; [7],100
same,Velvetleaf plant response rating,velvetleaf; [8],50
same,Velvetleaf plant response rating,velvetleaf; [9],60
same,"Plant response rating, Velvetleaf",velvetleaf; [10],80
CCn1nc(C(C)(C)C)cc1C(=O)Nc1cccc(C(=O)NC2CC2)n1 [Compound 146],Ducksalad plant response rating,"ducksalad; visual rating, 13 to 15 days",80
same,"Plant response rating, Cocklebur",cocklebur; [7],0
same,Cocklebur plant response rating,cocklebur; [8],20
same,Cocklebur plant response rating,cocklebur; [9],80
same,"Plant response rating, Cocklebur",cocklebur; [10],0
same,Wheat plant response rating,wheat; [9],10
same,"Oat, Wild plant response rating",wild oat; [8],10
same,"Oat, Wild plant response rating",wild oat; [9],20
same,Barnyardgrass plant response rating,"barnyardgrass [1]; visual rating, 13 to 15 days",60
same,"Plant response rating, Crabgrass, Large",large crabgrass; [7],100
same,"Crabgrass, Large plant response rating",large crabgrass; [8],10
same,"Crabgrass, Large plant response rating",large crabgrass; [9],20
same,"Plant response rating, Crabgrass, Large",large crabgrass; [10],10
same,Rice plant response rating,"rice; visual rating, 13 to 15 days",40
same,"Plant response rating, Morningglory",morningglory; [7],10
same,Morningglory plant response rating,morningglory; [8],0
same,Morningglory plant response rating,morningglory; [9],20
same,"Plant response rating, Morningglory",morningglory; [10],0
same,"Plant response rating, Foxtail, Giant",giant foxtail; [7],90
same,"Foxtail, Giant plant response rating",giant foxtail; [8],20
same,"Foxtail, Giant plant response rating",giant foxtail; [9],20
same,"Plant response rating, Foxtail, Giant",giant foxtail; [10],10
same,"Sedge, Umbrella plant response rating","[2]; visual rating, 13 to 15 days",90
same,"Plant response rating, Barnyardgrass",barnyardgrass [3]; [7],90
same,Barnyardgrass plant response rating,barnyardgrass [3]; [11],20
same,Barnyardgrass plant response rating,barnyardgrass [3]; [12],60
same,"Plant response rating, Barnyardgrass",barnyardgrass [3]; [10],40
same,"Plant response rating, Lambsquarters",lambsquarters; [7],100
same,Lambsquarters plant response rating,lambsquarters; [8],80
same,Lambsquarters plant response rating,lambsquarters; [9],90
same,"Plant response rating, Lambsquarters",lambsquarters; [10],80
same,"Plant response rating, Surinam Grass",Surinam grass; [7],30
same,Surinam Grass plant response rating,Surinam grass; [8],10
same,Surinam Grass plant response rating,Surinam grass; [9],30
same,"Plant response rating, Surinam Grass",Surinam grass; [10],10
same,"Plant response rating, Pigweed",pigweed; [7],100
same,Pigweed plant response rating,pigweed; [8],80
same,Pigweed plant response rating,pigweed; [9],90
same,"Plant response rating, Pigweed",pigweed; [10],100
same,"Plant response rating, Velvetleaf",velvetleaf; [7],90
same,Velvetleaf plant response rating,velvetleaf; [8],50
same,Velvetleaf plant response rating,velvetleaf; [9],60
same,"Plant response rating, Velvetleaf",velvetleaf; [10],20
